Source: patent US20220002297A1, “POLYMORPHS OF X842” (Cinclus Pharma AG, priority 2020, published 2022)
Blank lines part the entries; values can stand above or below the compound they belong to.

Legend:
[1] = Thermogravimetric analysis (TGA); type: physicochemical; details: for degradation of the sample (temperature): 25 to 320° C., 10° C./minute
Procedure: Analyses were performed on a Mettler Toledo TGA/DSC1 instrument, coupled with a Thermo Nicolet iS10 spectrometer. The sample was flushed with dry nitrogen gas during the analysis. The sample was scanned from 25 to 320° C. with a scan rate of 10° C./minute.
Degradation of the sample occurred at approximately 248° C.
Melting of the sample occurred at approximately 211° C., and degradation of the sample occurred at approximately 251° C.

[2] = Dynamic vapour sorption (DVS) analysis, hygroscopicity; type: physicochemical
Procedure: Analyses were performed on a Surface Measurement Systems DVS Intrinsic instrument. The relative humidity at 25° C. was calibrated against the deliquescense point of LiCL, Mg(NO3)2 and KCl. The sample (about 10-20 mg) was dried with nitrogen gas until a dm/dt below 0.002% per minute was reached. The instrument was running in dm/dt mode using a minimum dm/dt stability duration of 10 minutes and a maximum equilibrium time of 180 minutes. The sample was subjected to a sorption-desorption cycle running from 0 to 95 to 0% RH. One cycle consisted of 20 steps, those between 0 and 90% RH were taken in 10% RH each.
The hygroscopicity of Form A was investigated using DVS at 25° C. The water uptake at 25° C./80% RH was about 0.08%, which means that Form A is non-hygroscopic.

[3] = Half-life in the body, X842 compared to Linaprazan; type: in vivo; details: in comparison with Linaprazan
Procedure: (§1) X842 is a prodrug of Linaprazan, which was disclosed in WO 99/55706 and previously studied in Phase I and II studies. […] A clinical Phase I study has shown that administration of a single dose of X842 can maintain the intragastric acidity above pH 4 for 24 hours. X842 is therefore tailored for patients with severe erosive gastroesophageal reflux disease (eGERD).

intragastric acidity = type: in vivo, human
Procedure: as §1
Following absorption into the blood stream, X842 is quickly metabolized into Linaprazan, which is the active metabolite of X842. Whereas the plasma concentration of X842 is only very low and difficult to determine, the plasma concentration of Linaprazan may be determined instead. […] It is estimated that this requires a minimal plasma concentration (Cmin) of Linaprazan of at least about 240 nmol/L after 22 hours. At such doses, a once daily oral administration of the formulation would be sufficient. Therefore, in another aspect, the invention relates to the pharmaceutical composition as disclosed herein, wherein a unit dose of the composition provides a Cmin of Linaprazan in a human of at least about 240 nmol/L after 22 hours following oral administration of the pharmaceutical composition to said human.

[4] = Phase I and II studies; cited from earlier work

degradation of the sample (temperature) [1]: approximately 248 °C
weight loss before melting ([1]; before melting at approximately 217° C.): did not show any weight loss
hygroscopicity ([2]; DVS at 25° C.): non-hygroscopic
water uptake ([2]; DVS, 25° C./80% RH): about 0.08%
change of form after DVS (X-ray powder diffractograms before and after) ([2]; sorption-desorption cycle 0 to 95 to 0% RH, 25° C.): no change of form occurred
SMILES: Cc1cccc(C)c1CNc1cc(C(=O)NCCOC(=O)CCCC(=O)O)cn2c(C)c(C)nc12 [Form A, 5-{2-[({8-[(2,6-dimethylbenzyl)amino]-2,3-dimethylimidazo[1,2-a]pyridine-6-yl}carbonyl)-amino]ethoxy}-5-oxopentanoic acid]

degradation of the sample (temperature) [1]: approximately 251 °C
weight loss ([1]; in the range of 128-220° C., attributed to loss of isopropyl alcohol): approximately 1%
SMILES: Cc1cccc(C)c1CNc1cc(C(=O)NCCOC(=O)CCCC(=O)O)cn2c(C)c(C)nc12 [Form B, 5-{2-[({8-[(2,6-dimethylbenzyl)amino]-2,3-dimethylimidazo[1,2-a]pyridine-6-yl}carbonyl)-amino]ethoxy}-5-oxopentanoic acid]

half-life in the body [3]: longer
SMILES: Cc1cccc(C)c1CNc1cc(C(=O)NCCOC(=O)CCCC(=O)O)cn2c(C)c(C)nc12 [Form X842, 5-{2-[({8-[(2,6-dimethylbenzyl)amino]-2,3-dimethylimidazo[1,2-a]pyridine-6-yl}carbonyl)-amino]ethoxy}-5-oxopentanoic acid]
time intragastric pH is maintained above 4 (intragastric acidity; after administration of X842, Phase I): 24 hours

minimal plasma concentration (Cmin) of Linaprazan required to maintain intra-gastric pH above 4 for 24 hours (intragastric acidity; human, in vivo, po, 22 h): at least 240 nmol/L
SMILES: Cc1cccc(C)c1CNc1cc(C(=O)NCCO)cn2c(C)c(C)nc12 [Linaprazan]
elimination from the body [4]: quickly eliminated
tolerability [4]: well tolerated
